Measurements published in paper PMC11111408, “Concurrent inhibition of oncogenic and wild-type RAS-GTP for cancer therapy” (Nature, 2024).

System: PRISM DNA-barcoded human tumour cell lines
Test: PRISM pooled cell viability assay;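 as to Area under the curve (AUC): 8 threefold dilutions from 10 µM with 5 days of exposure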;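 as to PRISM AUC: 8 threefold dilutions from 10 µM with 5 days of exposure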
Type: cell-based
Design: Area under the curve (AUC): scale not given here; AUC (PRISM viability) / AUC (PRISM): unit not given beside the values
Conditions: for AUC (PRISM): BRAF class I; for PRISM AUC: KRAS MUT; for AUC (PRISM viability): WT
Protocol: Cells were then lysed in TCL mRNA lysis buffer, and then PCR with reverse transcription was performed. Detection of the barcodes and univariate and multivariate analysis was then performed as previously described. Data analysis is described in the Supplementary Methods. Up-to-date code for our analysis is at the github link: https://github.com/cmap/dockerized_mts.
For every gene with non-silent mutations in at least four cell-lines, we compared the AUC values between cells with and without those mutations using a t-test. This analysis was carried out for: (i) the full dataset; (ii) excluding cell lines with non-silent KRAS mutations; and (iii) excluding cell lines that have either KRAS or NRAS non-silent mutations.

[1] = DND41_HAEMATOPOIETIC_AND_LYMPHOID_TISSUE

SMILES: CCn1c(-c2cc(N3CCN(C4CC4)CC3)cnc2[C@H](C)OC)c2c3cc(ccc31)-c1csc(n1)C[C@H](NC(=O)[C@H]1[C@@H]3COC[C@@H]31)C(=O)N1CCC[C@H](N1)C(=O)OCC(C)(C)C2 [RMC-7977]
- Area under the curve (AUC) (42MGBA_CENTRAL_NERVOUS_SYSTEM): 0.8215
- Area under the curve (AUC) (253JBV_URINARY_TRACT): 0.7547
- Area under the curve (AUC) (639V_URINARY_TRACT): 0.5786
- Area under the curve (AUC) (647V_URINARY_TRACT): 0.793
- Area under the curve (AUC) (697_HAEMATOPOIETIC_AND_LYMPHOID_TISSUE): 0.7402
- Area under the curve (AUC) (769P_KIDNEY): 0.9025
- Area under the curve (AUC) (786O_KIDNEY): 0.9593
- Area under the curve (AUC) (5637_URINARY_TRACT): 0.5198
- Area under the curve (AUC) (8305C_THYROID): 0.8425
- AUC (PRISM) (A101D_SKIN): 0.8318
- AUC (PRISM) (A375_SKIN): 0.8721
- PRISM AUC (A549_LUNG): 0.4422
- AUC (PRISM) (A1207_CENTRAL_NERVOUS_SYSTEM): 0.9848
- AUC (PRISM) (A2058_SKIN): 0.6601
- PRISM AUC (AGS_STOMACH): 0.2114
- PRISM AUC (ASPC1_PANCREAS): 0.2372
- PRISM AUC (CAL62_THYROID): 0.7922
- PRISM AUC (CALU1_LUNG): 0.3345
- Area under the curve (AUC) (CAOV3_OVARY): 0.8029
- Area under the curve (AUC) (CAPAN2_PANCREAS): 0.3724
- PRISM AUC (CAPAN2_PANCREAS): 0.2599
- Area under the curve (AUC) (CAS1_CENTRAL_NERVOUS_SYSTEM): 0.8726
- Area under the curve (AUC) (CASKI_CERVIX): 0.7017
- Area under the curve (AUC) (CBAGPN_BONE): 0.5843
- Area under the curve (AUC) (CCFSTTG1_CENTRAL_NERVOUS_SYSTEM): 0.8445
- Area under the curve (AUC) (CCK81_LARGE_INTESTINE): 0.8268
- Area under the curve (AUC) (CCLP1_BILIARY_TRACT): 0.6816
- Area under the curve (AUC) (CCSW1_BILIARY_TRACT): 0.6555
- Area under the curve (AUC) (CFPAC1_PANCREAS): 0.5351
- PRISM AUC (CFPAC1_PANCREAS): 0.2506
- Area under the curve (AUC) (CH157MN_CENTRAL_NERVOUS_SYSTEM): 0.6397
- Area under the curve (AUC) (CHAGOK1_LUNG): 0.489
- Area under the curve (AUC) (CHL1_SKIN): 0.6244
- Area under the curve (AUC) (CHLA06ATRT_SOFT_TISSUE): 0.5593
- Area under the curve (AUC) (CHLA10_BONE): 0.7982
- Area under the curve (AUC) (CHLA15_AUTONOMIC_GANGLIA): 0.6039
- Area under the curve (AUC) (CHLA57_BONE): 0.7007
- Area under the curve (AUC) (CHLA200_CENTRAL_NERVOUS_SYSTEM): 0.6544
- Area under the curve (AUC) (CJM_SKIN): 0.5835
- Area under the curve (AUC) (CL11_LARGE_INTESTINE): 0.4982
- Area under the curve (AUC) (CMLT1_HAEMATOPOIETIC_AND_LYMPHOID_TISSUE): 0.6333
- Area under the curve (AUC) (COGAR359_SOFT_TISSUE): 0.7818
- Area under the curve (AUC) (COGE352_BONE): 0.9516
- Area under the curve (AUC) (COGN278_AUTONOMIC_GANGLIA): 0.4846
- Area under the curve (AUC) (COLO320_LARGE_INTESTINE): 0.6681
- Area under the curve (AUC) (COLO668_LUNG): 0.6484
- PRISM AUC (COLO668_LUNG): 0.815
- Area under the curve (AUC) (COLO678_LARGE_INTESTINE): 0.7153
- Area under the curve (AUC) (COLO679_SKIN): 0.858
- Area under the curve (AUC) (COLO680N_OESOPHAGUS): 0.6858
- Area under the curve (AUC) (COLO741_SKIN): 1
- Area under the curve (AUC) (COLO783_SKIN): 0.8893
- Area under the curve (AUC) (COLO792_SKIN): 0.7007
- Area under the curve (AUC) (COLO800_SKIN): 0.7125
- Area under the curve (AUC) (CORL23_LUNG): 0.5921
- PRISM AUC (CORL23_LUNG): 0.1909
- Area under the curve (AUC) (CORL88_LUNG): 0.5624
- Area under the curve (AUC) (CORL105_LUNG): 0.7085
- Area under the curve (AUC) (CORL279_LUNG): 0.7248
- Area under the curve (AUC) (COV318_OVARY): 0.8633
- Area under the curve (AUC) (COV362_OVARY): 0.7849
- Area under the curve (AUC) (COV434_OVARY): 0.99
- Area under the curve (AUC) (COV644_OVARY): 0.7771
- Area under the curve (AUC) (CW2_LARGE_INTESTINE): 0.99
- Area under the curve (AUC) (CW9019_SOFT_TISSUE): 0.6651
- Area under the curve (AUC) (DANG_PANCREAS): 0.3955
- PRISM AUC (DANG_PANCREAS): 0.2087
- Area under the curve (AUC) (DAOY_CENTRAL_NERVOUS_SYSTEM): 0.7146
- Area under the curve (AUC) (DBTRG05MG_CENTRAL_NERVOUS_SYSTEM): 0.9233
- Area under the curve (AUC) (DEL_HAEMATOPOIETIC_AND_LYMPHOID_TISSUE): 0.7782
- Area under the curve (AUC) (DETROIT562_UPPER_AERODIGESTIVE_TRACT): 0.4955
- Area under the curve (AUC) (DKMG_CENTRAL_NERVOUS_SYSTEM): 0.9357
- Area under the curve (AUC) (DL_SOFT_TISSUE): 0.5482
- Area under the curve (AUC) (DMS53_LUNG): 0.9195
- Area under the curve (AUC) (DMS79_LUNG): 0.9708
- Area under the curve (AUC) (DMS273_LUNG): 0.8299
- Area under the curve (AUC) [1]: 0.662
- PRISM AUC [1]: 0.4904
- Area under the curve (AUC) (DOHH2_HAEMATOPOIETIC_AND_LYMPHOID_TISSUE): 0.794
- Area under the curve (AUC) (DOTC24510_CERVIX): 0.5479
- Area under the curve (AUC) (DU145_PROSTATE): 0.7717
- Area under the curve (AUC) (DU4475_BREAST): 0.7278
- Area under the curve (AUC) (DV90_LUNG): 0.3742
- PRISM AUC (DV90_LUNG): 0.1773
- Area under the curve (AUC) (EB1_HAEMATOPOIETIC_AND_LYMPHOID_TISSUE): 0.7516
- Area under the curve (AUC) (EBC1_LUNG): 0.4773
- Area under the curve (AUC) (ECC2_BILIARY_TRACT): 0.751
- Area under the curve (AUC) (ECC10_STOMACH): 0.6145
- Area under the curve (AUC) (ECGI10_OESOPHAGUS): 0.5375
- Area under the curve (AUC) (EFE184_ENDOMETRIUM): 0.7163
- Area under the curve (AUC) (EFM19_BREAST): 0.9395
- Area under the curve (AUC) (EFM192A_BREAST): 1
- Area under the curve (AUC) (EFO21_OVARY): 0.6416
- Area under the curve (AUC) (EFO27_OVARY): 0.6995
- Area under the curve (AUC) (EGI1_BILIARY_TRACT): 0.5258
- Area under the curve (AUC) (EKVX_LUNG): 0.7007
- Area under the curve (AUC) (EM2_HAEMATOPOIETIC_AND_LYMPHOID_TISSUE): 0.5861
- Area under the curve (AUC) (EMTOKA_ENDOMETRIUM): 0.6769
- Area under the curve (AUC) (EN_ENDOMETRIUM): 0.882
- Area under the curve (AUC) (ES2_OVARY): 0.9145
- Area under the curve (AUC) (ESS1_ENDOMETRIUM): 0.5647
- Area under the curve (AUC) (EW8_BONE): 0.6981
- Area under the curve (AUC) (EWS502_BONE): 0.6483
- Area under the curve (AUC) (FADU_UPPER_AERODIGESTIVE_TRACT): 0.6687
- Area under the curve (AUC) (FLO1_OESOPHAGUS): 1
- Area under the curve (AUC) (FTC133_THYROID): 0.5671
- Area under the curve (AUC) (FTC238_THYROID): 0.9611
- Area under the curve (AUC) (G292CLONEA141B1): 0.925
- Area under the curve (AUC) (G292CLONEA141B1_BONE): 0.8311
- Area under the curve (AUC) (G361_SKIN): 1
- Area under the curve (AUC) (G401_SOFT_TISSUE): 0.9104
- Area under the curve (AUC) (G402_SOFT_TISSUE): 0.9029
- Area under the curve (AUC) (G415_BILIARY_TRACT): 0.596
- Area under the curve (AUC) (GAMG_CENTRAL_NERVOUS_SYSTEM): 0.6539
- Area under the curve (AUC) (GB1_CENTRAL_NERVOUS_SYSTEM): 1
- Area under the curve (AUC) (GB2_BILIARY_TRACT): 0.5045
- PRISM AUC (GP2D_LARGE_INTESTINE): 0.4036
- PRISM AUC (GSU_STOMACH): 0.1903
- PRISM AUC (HCC44_LUNG): 0.3549
- PRISM AUC (HCC56_LARGE_INTESTINE): 0.1735
- PRISM AUC (HCT15_LARGE_INTESTINE): 0.6069
- PRISM AUC (HCT116_LARGE_INTESTINE): 0.4206
- PRISM AUC (HEC1A_ENDOMETRIUM): 0.5452
- PRISM AUC (HEC1B_ENDOMETRIUM): 0.557
- PRISM AUC (HEYA8_OVARY): 0.3651
- PRISM AUC (HMC18_BREAST): 0.1236
- PRISM AUC (HPAC_PANCREAS): 0.2345
- PRISM AUC (HPAFII_PANCREAS): 0.1832
- AUC (PRISM viability) (HT29_LARGE_INTESTINE): 0.9401
- AUC (PRISM viability) (HT55_LARGE_INTESTINE): 0.5483
- AUC (PRISM viability) (HT144_SKIN): 0.8437
- AUC (PRISM viability) (HT_HAEMATOPOIETIC_AND_LYMPHOID_TISSUE): 0.5864
- PRISM AUC (HUCCT1_BILIARY_TRACT): 0.2016
